According to the NIST ThermoML archive (doi:10.1016/j.jct.2015.09.020):

Assay: mn = molality of the nth substance listed, in mol/kg
Conditions: 101.3 kPa, Liquid

NCCCC(=O)O [4-aminobutanoic acid] + O
Conditions	speed of sound [m/s]
278.15 K, Frequency=2 MHz, Linear variable-path acoustic interferometer, m1 = 0.0495	1431.4
278.15 K, Frequency=2 MHz, Linear variable-path acoustic interferometer, m1 = 0.0732	1433.1
278.15 K, Frequency=2 MHz, Linear variable-path acoustic interferometer, m1 = 0.0959	1435.4
278.15 K, Frequency=2 MHz, Linear variable-path acoustic interferometer, m1 = 0.1193	1436.9
278.15 K, Frequency=2 MHz, Linear variable-path acoustic interferometer, m1 = 0.1412	1439
278.15 K, Frequency=2 MHz, Linear variable-path acoustic interferometer, m1 = 0.1828	1442.1
278.15 K, Frequency=2 MHz, Linear variable-path acoustic interferometer, m1 = 0.2085	1444.1
278.15 K, Frequency=2 MHz, Linear variable-path acoustic interferometer, m1 = 0.2388	1446.9
278.15 K, Frequency=2 MHz, Linear variable-path acoustic interferometer, m1 = 0.2699	1449.7
278.15 K, Frequency=2 MHz, Linear variable-path acoustic interferometer, m1 = 0.2922	1452.3
278.15 K, Frequency=2 MHz, Linear variable-path acoustic interferometer, m1 = 0.3224	1455.4
278.15 K, Frequency=2 MHz, Linear variable-path acoustic interferometer, m1 = 0.3534	1457.4
288.15 K, Frequency=3 MHz, Sing-around technique in a fixed-path interferometer, m1 = 0.0554	1470.3
288.15 K, Frequency=3 MHz, Sing-around technique in a fixed-path interferometer, m1 = 0.0877	1472.6
288.15 K, Frequency=3 MHz, Sing-around technique in a fixed-path interferometer, m1 = 0.0989	1473.5
288.15 K, Frequency=3 MHz, Sing-around technique in a fixed-path interferometer, m1 = 0.1173	1474.9
288.15 K, Frequency=3 MHz, Sing-around technique in a fixed-path interferometer, m1 = 0.1538	1479
288.15 K, Frequency=3 MHz, Sing-around technique in a fixed-path interferometer, m1 = 0.1809	1481.1
288.15 K, Frequency=3 MHz, Sing-around technique in a fixed-path interferometer, m1 = 0.211	1483
288.15 K, Frequency=3 MHz, Sing-around technique in a fixed-path interferometer, m1 = 0.2389	1484.6
288.15 K, Frequency=3 MHz, Sing-around technique in a fixed-path interferometer, m1 = 0.2692	1486.5
288.15 K, Frequency=3 MHz, Sing-around technique in a fixed-path interferometer, m1 = 0.2861	1489.5
288.15 K, Frequency=3 MHz, Sing-around technique in a fixed-path interferometer, m1 = 0.3181	1492.3
288.15 K, Frequency=3 MHz, Sing-around technique in a fixed-path interferometer, m1 = 0.3496	1494.9
298.15 K, Frequency=3 MHz, Sing-around technique in a fixed-path interferometer, m1 = 0.0494	1501.1
298.15 K, Frequency=3 MHz, Sing-around technique in a fixed-path interferometer, m1 = 0.0781	1503.4
298.15 K, Frequency=3 MHz, Sing-around technique in a fixed-path interferometer, m1 = 0.1017	1505.1
298.15 K, Frequency=3 MHz, Sing-around technique in a fixed-path interferometer, m1 = 0.1227	1506.8
298.15 K, Frequency=3 MHz, Sing-around technique in a fixed-path interferometer, m1 = 0.1469	1508.9
298.15 K, Frequency=3 MHz, Sing-around technique in a fixed-path interferometer, m1 = 0.1846	1511.8
298.15 K, Frequency=3 MHz, Sing-around technique in a fixed-path interferometer, m1 = 0.1944	1512.8
298.15 K, Frequency=3 MHz, Sing-around technique in a fixed-path interferometer, m1 = 0.245	1516.7
298.15 K, Frequency=3 MHz, Sing-around technique in a fixed-path interferometer, m1 = 0.2746	1519.2
298.15 K, Frequency=3 MHz, Sing-around technique in a fixed-path interferometer, m1 = 0.2975	1521.1
298.15 K, Frequency=3 MHz, Sing-around technique in a fixed-path interferometer, m1 = 0.3196	1522.6
298.15 K, Frequency=3 MHz, Sing-around technique in a fixed-path interferometer, m1 = 0.3477	1525

Conditions	mass density [kg/m3]
278.15 K, Pycnometric method, m1 = 0.0495	1001.55
278.15 K, Pycnometric method, m1 = 0.0732	1002.25
278.15 K, Pycnometric method, m1 = 0.0959	1002.93
278.15 K, Pycnometric method, m1 = 0.1193	1003.65
278.15 K, Pycnometric method, m1 = 0.1412	1004.35
278.15 K, Pycnometric method, m1 = 0.1828	1005.72
278.15 K, Pycnometric method, m1 = 0.2085	1006.55
278.15 K, Pycnometric method, m1 = 0.2388	1007.5
278.15 K, Pycnometric method, m1 = 0.2699	1008.41
278.15 K, Pycnometric method, m1 = 0.2922	1009.03
278.15 K, Pycnometric method, m1 = 0.3224	1009.87
278.15 K, Pycnometric method, m1 = 0.3534	1010.83
288.15 K, Vibrating tube method, m1 = 0.0554	1000.83
288.15 K, Vibrating tube method, m1 = 0.0877	1001.66
288.15 K, Vibrating tube method, m1 = 0.0989	1002.15
288.15 K, Vibrating tube method, m1 = 0.1173	1002.71
288.15 K, Vibrating tube method, m1 = 0.1538	1003.54
288.15 K, Vibrating tube method, m1 = 0.1809	1004.28
288.15 K, Vibrating tube method, m1 = 0.211	1005.14
288.15 K, Vibrating tube method, m1 = 0.2389	1006.01
288.15 K, Vibrating tube method, m1 = 0.2692	1006.87
288.15 K, Vibrating tube method, m1 = 0.2861	1007.43
288.15 K, Vibrating tube method, m1 = 0.3181	1008.36
288.15 K, Vibrating tube method, m1 = 0.3496	1009.41
298.15 K, Vibrating tube method, m1 = 0.0494	998.48
298.15 K, Vibrating tube method, m1 = 0.0781	999.35
298.15 K, Vibrating tube method, m1 = 0.1017	1000.09
298.15 K, Vibrating tube method, m1 = 0.1227	1000.7
298.15 K, Vibrating tube method, m1 = 0.1469	1001.41
298.15 K, Vibrating tube method, m1 = 0.1846	1002.51
298.15 K, Vibrating tube method, m1 = 0.1944	1002.74
298.15 K, Vibrating tube method, m1 = 0.245	1004.3
298.15 K, Vibrating tube method, m1 = 0.2746	1004.99
298.15 K, Vibrating tube method, m1 = 0.2975	1005.61
298.15 K, Vibrating tube method, m1 = 0.3196	1006.38
298.15 K, Vibrating tube method, m1 = 0.3477	1007.09

Cl.NCC(=O)O [glycine hydrochloride] + O
Conditions	speed of sound [m/s]
278.15 K, Frequency=2 MHz, Linear variable-path acoustic interferometer, m1 = 0.0508	1430.8
278.15 K, Frequency=2 MHz, Linear variable-path acoustic interferometer, m1 = 0.0811	1433.6
278.15 K, Frequency=2 MHz, Linear variable-path acoustic interferometer, m1 = 0.1008	1435
278.15 K, Frequency=2 MHz, Linear variable-path acoustic interferometer, m1 = 0.1202	1436.2
278.15 K, Frequency=2 MHz, Linear variable-path acoustic interferometer, m1 = 0.1499	1438.3
278.15 K, Frequency=2 MHz, Linear variable-path acoustic interferometer, m1 = 0.1801	1441.1
278.15 K, Frequency=2 MHz, Linear variable-path acoustic interferometer, m1 = 0.2112	1443.2
278.15 K, Frequency=2 MHz, Linear variable-path acoustic interferometer, m1 = 0.2325	1445.3
278.15 K, Frequency=2 MHz, Linear variable-path acoustic interferometer, m1 = 0.2472	1445.9
278.15 K, Frequency=2 MHz, Linear variable-path acoustic interferometer, m1 = 0.2732	1448
278.15 K, Frequency=2 MHz, Linear variable-path acoustic interferometer, m1 = 0.2995	1449.7
278.15 K, Frequency=2 MHz, Linear variable-path acoustic interferometer, m1 = 0.3208	1451.3
278.15 K, Frequency=2 MHz, Linear variable-path acoustic interferometer, m1 = 0.3529	1454.1
288.15 K, Frequency=3 MHz, Sing-around technique in a fixed-path interferometer, m1 = 0.05	1469.8
288.15 K, Frequency=3 MHz, Sing-around technique in a fixed-path interferometer, m1 = 0.0802	1471.7
288.15 K, Frequency=3 MHz, Sing-around technique in a fixed-path interferometer, m1 = 0.1002	1473.1
288.15 K, Frequency=3 MHz, Sing-around technique in a fixed-path interferometer, m1 = 0.1216	1474.5
288.15 K, Frequency=3 MHz, Sing-around technique in a fixed-path interferometer, m1 = 0.1506	1476.6
288.15 K, Frequency=3 MHz, Sing-around technique in a fixed-path interferometer, m1 = 0.1821	1479
288.15 K, Frequency=3 MHz, Sing-around technique in a fixed-path interferometer, m1 = 0.21	1480.8
288.15 K, Frequency=3 MHz, Sing-around technique in a fixed-path interferometer, m1 = 0.2318	1482.2
288.15 K, Frequency=3 MHz, Sing-around technique in a fixed-path interferometer, m1 = 0.2508	1483.4
288.15 K, Frequency=3 MHz, Sing-around technique in a fixed-path interferometer, m1 = 0.2723	1484.8
288.15 K, Frequency=3 MHz, Sing-around technique in a fixed-path interferometer, m1 = 0.3012	1486.4
288.15 K, Frequency=3 MHz, Sing-around technique in a fixed-path interferometer, m1 = 0.3205	1488.1
288.15 K, Frequency=3 MHz, Sing-around technique in a fixed-path interferometer, m1 = 0.3534	1489.9
298.15 K, Frequency=3 MHz, Sing-around technique in a fixed-path interferometer, m1 = 0.0515	1500
298.15 K, Frequency=3 MHz, Sing-around technique in a fixed-path interferometer, m1 = 0.0839	1502
298.15 K, Frequency=3 MHz, Sing-around technique in a fixed-path interferometer, m1 = 0.1035	1503.3
298.15 K, Frequency=3 MHz, Sing-around technique in a fixed-path interferometer, m1 = 0.1305	1504.9
298.15 K, Frequency=3 MHz, Sing-around technique in a fixed-path interferometer, m1 = 0.1453	1505.9
298.15 K, Frequency=3 MHz, Sing-around technique in a fixed-path interferometer, m1 = 0.185	1508.2
298.15 K, Frequency=3 MHz, Sing-around technique in a fixed-path interferometer, m1 = 0.2073	1509.4
298.15 K, Frequency=3 MHz, Sing-around technique in a fixed-path interferometer, m1 = 0.2401	1511.3
298.15 K, Frequency=3 MHz, Sing-around technique in a fixed-path interferometer, m1 = 0.2727	1513.2
298.15 K, Frequency=3 MHz, Sing-around technique in a fixed-path interferometer, m1 = 0.3029	1514.9
298.15 K, Frequency=3 MHz, Sing-around technique in a fixed-path interferometer, m1 = 0.3177	1515.8
298.15 K, Frequency=3 MHz, Sing-around technique in a fixed-path interferometer, m1 = 0.3535	1517.9

Conditions	mass density [kg/m3]
278.15 K, Pycnometric method, m1 = 0.0508	1002.4
278.15 K, Pycnometric method, m1 = 0.0811	1003.61
278.15 K, Pycnometric method, m1 = 0.1008	1004.87
278.15 K, Pycnometric method, m1 = 0.1202	1005.41
278.15 K, Pycnometric method, m1 = 0.1499	1006.88
278.15 K, Pycnometric method, m1 = 0.1801	1008.05
278.15 K, Pycnometric method, m1 = 0.2112	1009.37
278.15 K, Pycnometric method, m1 = 0.2325	1010.42
278.15 K, Pycnometric method, m1 = 0.2472	1011.07
278.15 K, Pycnometric method, m1 = 0.2732	1012.17
278.15 K, Pycnometric method, m1 = 0.2995	1013.21
278.15 K, Pycnometric method, m1 = 0.3208	1014.01
278.15 K, Pycnometric method, m1 = 0.3529	1015.11
288.15 K, Vibrating tube method, m1 = 0.05	1001.39
288.15 K, Vibrating tube method, m1 = 0.0802	1002.72
288.15 K, Vibrating tube method, m1 = 0.1002	1003.61
288.15 K, Vibrating tube method, m1 = 0.1216	1004.54
288.15 K, Vibrating tube method, m1 = 0.1506	1005.74
288.15 K, Vibrating tube method, m1 = 0.1821	1007.14
288.15 K, Vibrating tube method, m1 = 0.21	1008.37
288.15 K, Vibrating tube method, m1 = 0.2318	1009.27
288.15 K, Vibrating tube method, m1 = 0.2508	1010.04
288.15 K, Vibrating tube method, m1 = 0.2723	1010.95
288.15 K, Vibrating tube method, m1 = 0.3012	1012.17
288.15 K, Vibrating tube method, m1 = 0.3205	1012.97
288.15 K, Vibrating tube method, m1 = 0.3534	1014.37
298.15 K, Vibrating tube method, m1 = 0.0839	1000.75
298.15 K, Vibrating tube method, m1 = 0.1035	1001.57
298.15 K, Vibrating tube method, m1 = 0.1305	1002.87
298.15 K, Vibrating tube method, m1 = 0.1453	1003.51
298.15 K, Vibrating tube method, m1 = 0.185	1005.13
298.15 K, Vibrating tube method, m1 = 0.2073	1005.96
298.15 K, Vibrating tube method, m1 = 0.2401	1007.29
298.15 K, Vibrating tube method, m1 = 0.2727	1008.59
298.15 K, Vibrating tube method, m1 = 0.3029	1009.81
298.15 K, Vibrating tube method, m1 = 0.3177	1010.44
298.15 K, Vibrating tube method, m1 = 0.3535	1011.84
